Data as given in patent US20240327426A1, “CRYSTALLINE FORMS OF CEFTIBUTEN” (QPEX BIOPHARMA, INC., priority 2021, published 2024).

How the values were obtained:
Format in all cases: physicochemical
[1] = Karl Fischer moisture content of ceftibuten hydrate batches; details: batches prepared by procedure of Example 1, dried at 30° C. in a vacuum oven
Method: (§1) In a reaction vessel are charged 400 mL of demineralized water, 37.0 g crude Ceftibuten and 190 mL acetone at 20-25° C. To this mixture is added with stirring a solution of 22.1 g NaHCO3 and 252.2 mL of demineralized water, keeping the pH at 6.5-6.9. The pH is then adjusted to 6.5-6.7 using 15% aqueous H2SO4. To the resulting solution are charged 13.8 g aluminum oxide, 5 g Norit charcoal, 1.5 g Na2S2O4 and 0.25 g disodium EDTA. The mixture is stirred for 20-25 min maintaining pH at 6.5-6.7 with 15% aqueous H2SO4, and is then filtered and washed with 200 mL of demineralized water. The filtrate is added over 20-30 min to a second vessel containing 630 mL water, 81 g malic acid and 175 g 15% aqueous H2SO4, maintaining the temperature at 20-25° C. After stirring for 50-70 min, the pH is adjusted to 2.9-3.1 over 20-25 min at 20-25° C. with a solution constituted by 30 g of K2CO3 and 70 g of demineralized water. This mixture is stirred for 2-2.5 hours, after which it is filtered and washed 5 times with demineralized water (250 mL each). The wet product is dried at 30° C. in a vacuum oven. Depending on the extent of drying, the resulting product may be Form A, Form B, or a mixture of Forms A and B. Three batches prepared by this procedure are shown in Table 1 below.
Karl Fischer analyses were carried out using a Mettler-Toledo C20 Coulometric KF titrator. The instrument was calibrated using a Hydranal water standard containing 1% water. The titrant was a Hydranal methanol solution.

[2] = Form stability upon storage/shipping at ambient temperature and humidity
Method: as §1

[3] = Moisture sorption-desorption (dynamic vapor sorption) analysis; details: for Crystalline form after moisture sorption-desorption analysis: 25° C., 5 to 95% RH adsorption and 95 to 5% RH desorption, 10% RH steps
Method: In one embodiment, moisture sorption-desorption analyses were taken after running the moisture sorption-desorption experiments. […] DVS analysis was carried out TA Instruments Q5000 Dynamic Vapor Sorption analyzer. The instrument was calibrated with standard weights and a sodium bromide standard for humidity. Samples were analyzed at 25° C. with a maximum equilibration time of 60 minutes in 10% relative humidity (RH) steps from 5 to 95% RH (adsorption cycle) and from 95 to 5% RH (desorption cycle).

[4] = Differential scanning calorimetry (DSC); details: 25° C. to 350° C. at 10° C. per minute, nitrogen purge
Method: DSC analysis was carried out using a TA Instruments Q2500 Discovery Series instrument. The instrument temperature calibration was performed using indium. The DSC cell was kept under a nitrogen purge of ˜50 mL per minute during the analysis. The sample was placed in a standard, crimped, aluminum pan and was heated from approximately 25° C. to 350° C. at a rate of 10° C. per minute.

[5] = Physical stability under relative humidity conditions, checked by X-ray powder diffraction
Source text: In some embodiments, Form A of the compound of Formula (I) may contain between two to three molar equivalents of water. Samples of Form A of the compound of Formula (I) were exposed to several relative humidity conditions ranging from 15% to 100% relative humidity for a period of 14 days, after which an X-ray powder diffraction was taken. In one embodiment, samples Form A of the compound of Formula (I) were exposed to several relative humidity conditions, including 15% relative humidity, 30% relative humidity, 45% relative humidity, 60% relative humidity, 75% relative humidity, and 100% relative humidity for a period of 14 days, after which an X-ray powder diffraction was taken. […] In some embodiments, Form B of the compound of Formula (I) may contain between two to three molar equivalents of water. […] X-ray diffraction was used to characterize the compound of Formula (I). A Rigaku Smart-Lab X-ray diffraction system was configured for reflection Bragg-Brentano geometry using a line source X-ray beam. The x-ray source was a Cu Long Fine Focus tube that may be operated at 40 kV and 44 mA. That source provides an incident beam profile at the sample that changes from a narrow line at high angles to a broad rectangle at low angles. […] Each sample was analyzed from 2 to 40° 2θ using a continuous scan of 6° 2θ per minute with an effective step size of 0.02° 2θ.

Nc1nc(/C(=C/CC(=O)O)C(=O)N[C@@H]2C(=O)N3C(C(=O)O)=CCS[C@H]23)cs1 [Batch 1, ceftibuten]
Moisture Content [1]: 9.44% | Crystalline form change / stability upon storage/shipping [2]: converted from a mixture to all Form B

Nc1nc(/C(=C/CC(=O)O)C(=O)N[C@@H]2C(=O)N3C(C(=O)O)=CCS[C@H]23)cs1 [Batch 2, ceftibuten]
Moisture Content ([1]; listed as 2): 8.60%

Nc1nc(/C(=C/CC(=O)O)C(=O)N[C@@H]2C(=O)N3C(C(=O)O)=CCS[C@H]23)cs1 [Batch 3, ceftibuten]
Moisture Content ([1]; listed as 3): 11.68%

Nc1nc(/C(=C/CC(=O)O)C(=O)N[C@@H]2C(=O)N3C(C(=O)O)=CCS[C@H]23)cs1 [Form A, ceftibuten]
Hygroscopicity [3]: moderately hygroscopic | Crystalline form after moisture sorption-desorption analysis [3]: convert to Form B | Dehydration temperature during heating [4]: approximately 100 °C | Form conversion under extremely dry conditions ([5]; 0% relative humidity): may convert to Form B | X-ray powder diffraction form after relative humidity exposure ([5]; 15%, 30%, 45%, 60%, 75% and 100% relative humidity, 14 days): match for Form A

Nc1nc(/C(=C/CC(=O)O)C(=O)N[C@@H]2C(=O)N3C(C(=O)O)=CCS[C@H]23)cs1 [Form B, ceftibuten]
Hygroscopicity [3]: moderately hygroscopic | Crystalline form after moisture sorption-desorption analysis [3]: remain stable and unchanged | Dehydration temperature during heating [4]: approximately 100 °C | Crystalline form change / stability upon storage/shipping [2]: increased stability
